# Patent US20160271263A1 (Novo Nordisk A/S, priority 2010, published 2016)
# Numbered stars: 1 amine (or outer) side, 2 acyl side, 3 side chain; on linkers, the order of the positions; unused ones are H or OH. Side chains are listed from the residue outwards. Peptide text beside a SMILES is read from it. * marks the point of attachment. C18 diacid = O=C(O)CCCCCCCCCCCCCCCCC(=O)*; γGlu = O=C(O)[C@H](CCC(=O)[*:2])N[*:1]; AEEA = NCCOCCOCC(=O)O
# Target: glucagon receptor (Homo sapiens, UniProt P47871)
# Sequence (P47871 26-477): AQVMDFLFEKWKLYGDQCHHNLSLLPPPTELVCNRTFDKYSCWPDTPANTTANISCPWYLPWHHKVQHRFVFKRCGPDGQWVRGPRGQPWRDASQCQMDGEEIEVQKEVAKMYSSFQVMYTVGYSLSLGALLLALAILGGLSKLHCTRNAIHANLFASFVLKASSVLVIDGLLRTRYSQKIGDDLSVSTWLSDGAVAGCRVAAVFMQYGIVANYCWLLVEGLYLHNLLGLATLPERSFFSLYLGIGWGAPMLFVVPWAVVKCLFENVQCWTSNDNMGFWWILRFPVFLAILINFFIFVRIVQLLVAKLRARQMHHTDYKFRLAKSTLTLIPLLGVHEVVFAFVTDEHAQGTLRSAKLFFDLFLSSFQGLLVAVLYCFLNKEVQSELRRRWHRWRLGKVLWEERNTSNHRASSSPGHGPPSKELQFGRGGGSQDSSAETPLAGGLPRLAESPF
# Assay: cell-based
# Procedure: The cells (14000 per well) were incubated (37° C., 5% CO2) overnight in 384-well plates. Next day the cells were loaded with a calcium responsive dye that only distributed into the cytoplasm. Probenecid, an inhibitor of the organic anion transporter, was added to prevent the dye from leaving the cell. A PDE inhibitor was added to prevent formatted cAMP from being degraded. […] End point data were collected after 6 minutes. An increase in intracellular cAMP was proportional to an increased in calcium concentrations in the cytoplasm. […] EC50-values were calculated in Prism5.
row,SMILES,EC50
1,CC(C)C[C@H](NC(=O)[C@H](Cc1ccc(O)cc1)NC(=O)[C@H](CCCCN)NC(=O)[C@H](CO)NC(=O)[C@H](Cc1ccc(O)cc1)NC(=O)[C@H](CC(=O)O)NC(=O)[C@H](CO)NC(=O)[C@@H](NC(=O)[C@H](Cc1ccccc1)NC(=O)[C@@H](NC(=O)CNC(=O)[C@H](CCC(N)=O)NC(=O)[C@H](CO)NC(=O)[C@@H](N)Cc1c[nH]cn1)[C@@H](C)O)[C@@H](C)O)C(=O)N[C@@H](CC(=O)O)C(=O)N[C@@H](CO)C(=O)N[C@@H](CCCNC(=N)N)C(=O)N[C@@H](CCCNC(=N)N)C(=O)N[C@@H](C)C(=O)N[C@@H](CCC(N)=O)C(=O)N[C@@H](CC(=O)O)C(=O)N[C@@H](Cc1ccccc1)C(=O)N[C@H](C(=O)N[C@@H](CCCCNC(=O)COCCOCCNC(=O)COCCOCCNC(=O)CC[C@H](NC(=O)CCCCCCCCCCCCCCCCC(=O)O)C(=O)O)C(=O)N[C@@H](Cc1c[nH]c2ccccc12)C(=O)N[C@@H](CC(C)C)C(=O)N[C@@H](CC(C)C)C(=O)N[C@H](C(=O)N[C@H](C(=O)O)[C@@H](C)O)[C@@H](C)O)C(C)C [Example 15],0.024 nM
2,"CC(C)C[C@H](NC(=O)[C@H](Cc1ccc(O)cc1)NC(=O)[C@H](CCCCN)NC(=O)[C@H](CO)NC(=O)[C@H](Cc1ccc(O)cc1)NC(=O)[C@H](CC(=O)O)NC(=O)[C@H](CO)NC(=O)[C@@H](NC(=O)[C@H](Cc1ccccc1)NC(=O)[C@@H](NC(=O)CNC(=O)[C@H](CCC(N)=O)NC(=O)[C@H](CO)NC(=O)[C@@H](N)Cc1c[nH]cn1)[C@@H](C)O)[C@@H](C)O)C(=O)N[C@@H](CC(=O)O)C(=O)N[C@@H](CO)C(=O)N[C@@H](CCCNC(=N)N)C(=O)N[C@@H](CCC(N)=O)C(=O)N[C@@H](C)C(=O)N[C@@H](CCC(N)=O)C(=O)N[C@@H](CCC(=O)O)C(=O)N[C@@H](Cc1ccccc1)C(=O)N[C@H](C(=O)N[C@@H](CCCCNC(=O)COCCOCCNC(=O)COCCOCCNC(=O)CC[C@H](NC(=O)CCCCCCCCCCCCCCCCC(=O)O)C(=O)O)C(=O)N[C@@H](Cc1c[nH]c2ccccc12)C(=O)N[C@@H](CC(C)C)C(=O)N[C@@H](CC(C)C)C(=O)N[C@@H](CC(N)=O)C(=O)N[C@H](C(=O)O)[C@@H](C)O)C(C)C [Example 49, N^ε24-([2-[2-[2-[[2-[2-[2-[[(4S)-5-hydroxy-4-[(18-hydroxy-18-oxooctadecanoyl)amino]-5-oxopentanoyl]amino]ethoxy]ethoxy]acetyl]amino]ethoxy]ethoxy]acetyl]) [Gln^18,Glu^21,Lys^24,Leu^27] Glucagon] (H-HSQGTFTSDYSKYLDSRQAQEFVK([AEEA-AEEA-γGlu-C18 diacid])WLLNT-OH; N-terminus and C-terminus assumed)",0.15 nM
3,CC(C)C[C@H](NC(=O)[C@H](Cc1ccc(O)cc1)NC(=O)[C@H](CCCCN)NC(=O)[C@H](CO)NC(=O)[C@H](Cc1ccc(O)cc1)NC(=O)[C@H](CC(=O)O)NC(=O)[C@H](CO)NC(=O)[C@@H](NC(=O)[C@H](Cc1ccccc1)NC(=O)[C@@H](NC(=O)CNC(=O)[C@H](CCC(N)=O)NC(=O)[C@H](CO)NC(=O)[C@@H](N)Cc1c[nH]cn1)[C@@H](C)O)[C@@H](C)O)C(=O)N[C@@H](CC(=O)O)C(=O)N[C@@H](CO)C(=O)N[C@@H](CCCNC(=N)N)C(=O)N[C@@H](CCCNC(=N)N)C(=O)N[C@@H](C)C(=O)N[C@@H](CCC(N)=O)C(=O)N[C@@H](CCC(=O)O)C(=O)N[C@@H](Cc1ccccc1)C(=O)N[C@H](C(=O)N[C@@H](CCCCNC(=O)COCCOCCNC(=O)COCCOCCNC(=O)CC[C@H](NC(=O)CCCCCCCCCCCCCCCCC(=O)O)C(=O)O)C(=O)N[C@@H](Cc1c[nH]c2ccccc12)C(=O)N[C@@H](CC(C)C)C(=O)N[C@@H](CC(C)C)C(=O)N[C@@H](CC(N)=O)C(=O)N[C@H](C(=O)O)[C@@H](C)O)C(C)C [Example 48],0.021 nM
4,"CC(C)C[C@H](NC(=O)[C@H](CC(C)C)NC(=O)[C@H](Cc1c[nH]c2ccccc12)NC(=O)[C@H](CCC(N)=O)NC(=O)[C@@H](NC(=O)[C@H](Cc1ccccc1)NC(=O)[C@H](CC(=O)O)NC(=O)[C@H](CCC(N)=O)NC(=O)[C@H](C)NC(=O)[C@H](CCCNC(=N)N)NC(=O)[C@H](CCCNC(=N)N)NC(=O)[C@H](CO)NC(=O)[C@H](CC(=O)O)NC(=O)[C@H](CC(C)C)NC(=O)[C@H](Cc1ccc(O)cc1)NC(=O)[C@H](CCCCN)NC(=O)[C@H](CO)NC(=O)[C@H](Cc1ccc(O)cc1)NC(=O)[C@H](CC(=O)O)NC(=O)[C@H](CO)NC(=O)[C@@H](NC(=O)[C@H](Cc1ccccc1)NC(=O)[C@@H](NC(=O)CNC(=O)[C@H](CCC(N)=O)NC(=O)[C@H](CO)NC(=O)[C@@H](N)Cc1c[nH]cn1)[C@@H](C)O)[C@@H](C)O)C(C)C)C(=O)N[C@@H](CC(N)=O)C(=O)N[C@@H](CCCCNC(=O)CC[C@H](NC(=O)CC[C@H](NC(=O)COCCOCCNC(=O)COCCOCCNC(=O)CC[C@H](NC(=O)CCCCCCCCCCCCCCCCC(=O)O)C(=O)O)C(=O)O)C(=O)O)C(=O)O [Example 53, N^ε29-([(4S)-5-hydroxy-4-[[(4S)-5-hydroxy-4-[[2-[2-[2-[[2-[2-[2-[[(4S)-5-hydroxy-4-[(18-hydroxy-18-oxooctadecanoyl)amino]-5-oxopentanoyl]amino]ethoxy]ethoxy]acetyl]amino]ethoxy]ethoxy]acetyl]amino]-5-oxopentanoyl]amino]-5-oxopentanyl]) [Leu^27,Lys^29] Glucagon]",0.095 nM

# More lines, now with the values ahead:
row,EC50,SMILES
1,0.116 nM,"CC(C)C[C@H](NC(=O)[C@H](Cc1ccc(O)cc1)NC(=O)[C@H](CCCCN)NC(=O)[C@H](CO)NC(=O)[C@H](Cc1ccc(O)cc1)NC(=O)[C@H](CC(=O)O)NC(=O)[C@H](CO)NC(=O)[C@@H](NC(=O)[C@H](Cc1ccccc1)NC(=O)[C@@H](NC(=O)CNC(=O)[C@H](CCC(N)=O)NC(=O)[C@H](CO)NC(=O)[C@@H](N)Cc1c[nH]cn1)[C@@H](C)O)[C@@H](C)O)C(=O)N[C@@H](CC(=O)O)C(=O)N[C@@H](CO)C(=O)N[C@@H](CCCNC(=N)N)C(=O)N[C@@H](CCCNC(=N)N)C(=O)N[C@@H](C)C(=O)N[C@@H](CCC(N)=O)C(=O)N[C@@H](CC(=O)O)C(=O)N[C@@H](Cc1ccccc1)C(=O)N[C@H](C(=O)N[C@@H](CCC(N)=O)C(=O)N[C@@H](Cc1c[nH]c2ccccc12)C(=O)N[C@@H](CC(C)C)C(=O)N[C@@H](CC(C)C)C(=O)N[C@@H](CCCCNC(=O)COCCOCCNC(=O)COCCOCCNC(=O)CC[C@H](NC(=O)CC[C@H](NC(=O)CC[C@H](NC(=O)CCCCCCCCCCCCCCCCC(=O)O)C(=O)O)C(=O)O)C(=O)O)C(=O)N[C@H](C(=O)O)[C@@H](C)O)C(C)C [Example 67, N^ε28-[2-[2-[2-[[2-[2-[2-[[(4S)-4-carboxy-4-[[(4S)-4-carboxy-4-[[(4S)-4-carboxy-4-(17-carboxyheptadecanoylamino)butanoyl]amino]butanoyl]amino]butanoyl]amino]ethoxy]ethoxy]acetyl]amino]ethoxy]ethoxy]acetyl]-[Leu^27,Lys^28]-Glucagon]"
2,0.055 nM,"CC(C)C[C@H](NC(=O)[C@H](Cc1ccc(O)cc1)NC(=O)[C@H](CCCCN)NC(=O)[C@H](CO)NC(=O)[C@H](Cc1ccc(O)cc1)NC(=O)[C@H](CC(=O)O)NC(=O)[C@H](CO)NC(=O)[C@@H](NC(=O)[C@H](Cc1ccccc1)NC(=O)[C@@H](NC(=O)CNC(=O)[C@H](CCC(N)=O)NC(=O)[C@H](CO)NC(=O)[C@@H](N)Cc1c[nH]cn1)[C@@H](C)O)[C@@H](C)O)C(=O)N[C@@H](CC(=O)O)C(=O)N[C@@H](CO)C(=O)N[C@@H](CCCNC(=N)N)C(=O)N[C@@H](CCCNC(=N)N)C(=O)N[C@@H](C)C(=O)N[C@@H](CCC(N)=O)C(=O)N[C@@H](CC(=O)O)C(=O)N[C@@H](Cc1ccccc1)C(=O)N[C@H](C(=O)N[C@@H](CCC(N)=O)C(=O)N[C@@H](Cc1c[nH]c2ccccc12)C(=O)N[C@@H](CC(C)C)C(=O)N[C@@H](CC(C)C)C(=O)N[C@@H](CCCCNC(=O)CC[C@H](NC(=O)CC[C@H](NC(=O)COCCOCCNC(=O)COCCOCCNC(=O)CC[C@H](NC(=O)CCCCCCCCCCCCCCCCC(=O)O)C(=O)O)C(=O)O)C(=O)O)C(=O)N[C@H](C(=O)O)[C@@H](C)O)C(C)C [Example 52, N^ε28-([(4S)-5-hydroxy-4-[[(4S)-5-hydroxy-4-[[2-[2-[2-[[2-[2-[2-[[(4S)-5-hydroxy-4-[(18-hydroxy-18-oxooctadecanoyl)amino]-5-oxopentanoyl]amino]ethoxy]ethoxy]acetyl]amino]ethoxy]ethoxy]acetyl]amino]-5-oxopentanoyl]amino]-5-oxopentanoyl]) [Leu^27,Lys^28] Glucagon]"
3,0.105 nM,"CC(C)C[C@H](NC(=O)[C@H](Cc1ccc(O)cc1)NC(=O)[C@H](CCCCN)NC(=O)[C@H](CO)NC(=O)[C@H](Cc1ccc(O)cc1)NC(=O)[C@H](CC(=O)O)NC(=O)[C@H](CO)NC(=O)[C@@H](NC(=O)[C@H](Cc1ccccc1)NC(=O)[C@@H](NC(=O)CNC(=O)[C@H](CCC(N)=O)NC(=O)[C@H](CO)NC(=O)[C@@H](N)Cc1c[nH]cn1)[C@@H](C)O)[C@@H](C)O)C(=O)N[C@@H](CC(=O)O)C(=O)N[C@@H](CCCCNC(=O)CC[C@H](NC(=O)CC[C@H](NC(=O)COCCOCCNC(=O)COCCOCCNC(=O)CC[C@H](NC(=O)CCCCCCCCCCCCCCCCC(=O)O)C(=O)O)C(=O)O)C(=O)O)C(=O)N[C@@H](CCCNC(=N)N)C(=O)N[C@@H](CCCNC(=N)N)C(=O)N[C@@H](C)C(=O)N[C@@H](CCC(N)=O)C(=O)N[C@@H](CC(=O)O)C(=O)N[C@@H](Cc1ccccc1)C(=O)N[C@H](C(=O)N[C@@H](CCC(N)=O)C(=O)N[C@@H](Cc1c[nH]c2ccccc12)C(=O)N[C@@H](CC(C)C)C(=O)N[C@@H](CC(C)C)C(=O)N[C@@H](CC(N)=O)C(=O)N[C@H](C(=O)O)[C@@H](C)O)C(C)C [Example 70, N^ε16-[(4S)-4-carboxy-4-[[(4S)-4-carboxy-4-[[2-[2-[2-[[2-[2-[2-[[(4S)-4-carboxy-4-(17-carboxyheptadecanoylamino)butanoyl]amino]ethoxy]ethoxy]acetyl]amino]ethoxy]ethoxy]acetyl]amino]butanoyl]amino]butanoyl]-[Lys^16,Leu^27]-Glucagon] (H-HSQGTFTSDYSKYLDK([γGlu-γGlu-AEEA-AEEA-γGlu-C18 diacid])RRAQDFVQWLLNT-OH; N-terminus and C-terminus assumed)"
